Experimental data taken from PubChem BioAssay AID651574 (The Scripps Research Institute Molecular Screening Center, 2012).
Calls of active or inactive are those of the source. No rule for the calls is given here.

Tested on: Core protein (Hepatitis C virus)
Test: reduction of HCV RNA in infected cells – cell-based, fluorescence qPCR, two timepoints, counter-screen for HCV core dimerization inhibitor project, late-stage follow-up (AID 651574)
Conditions: viral RNA qPCR

SMILES | IC50 (timepoint 1) [µM] | IC50 (timepoint 2)
Cc1ccc(Cc2c(C)nc3nc(SCC(=O)NCCN4CCOCC4)nn3c2C)cc1 | 12 | –
Cc1ccc(Cc2c(C)nc3nc(SCC(=O)NCCN4CCN(CCc5ccccc5)CC4)nn3c2C)cc1 | 3.07 | –
Cc1ccc(Cc2c(C)nc3nc(SCC(=O)NCCN4CCN(S(=O)(=O)c5ccccc5)CC4)nn3c2C)cc1 | 5.3 | 12.5 µM
Cc1ccc(Cc2c(C)nc3nc(SCC(=O)NCCN4CCCN(S(C)(=O)=O)CC4)nn3c2C)cc1 | 18.9 | 24.3 µM (inactive)
Cc1ccc(Cc2c(C)nc3nc(SCC(=O)NCCN4CCCN(S(=O)(=O)c5ccc(C)cc5)CC4)nn3c2C)cc1 | 2.7 | 7.2 µM
Cc1ccc(Cc2c(C)nc3nc(SCC(=O)NCCN4CCNCC4)nn3c2C)cc1 | – | 1.8 µM
Cc1ccc(Cc2c(C)nc3nc(SCC(=O)NCCN4CCCCCC4)nn3c2C)cc1 | 8.5 | 13.7 µM
Cc1ccc(Cc2c(C)nc3nc(SCC(=O)NCCCN4CCCCCC4)nn3c2C)cc1 | 6.7 | 12 µM
Cc1ccc(Cc2c(CCc3ccccc3)nc3nc(SC(Cc4ccccc4)C(=O)NCCN4CCOCC4)nn3c2C)cc1 (configuration not stated) | 7.7 | –
Cc1ccc(Cc2c(C)nc3nc(SCC(=O)NCCN4CCCN(S(=O)(=O)c5ccccc5)CC4)nn3c2C)cc1 | 3.2 | 2.2 µM
Cc1ccc(Cc2c(C)nc3nc(SCC(=O)NCCN4CCN(Cc5ccc(F)cc5)CC4)nn3c2C)cc1 | 0.099 | –
